Experimental data: ChEMBL document CHEMBL6153042, “Glycoconjugates of adefovir and tenofovir as asialoglycoprotein-mediated Anti-HBV prodrugs with enhanced liver targeting” (Eur J Med Chem, 2025); call rule not given here

Columns and labels:
[1] = Clearance in Sprague-Dawley rat at 5 mg/kg, iv by LC-MS analysis; assay type: ADME, organism-based; details: in vivo
[2] = Clearance in Sprague-Dawley rat at 50 mg/kg, po by LC-MS analysis; assay type: ADME, organism-based; details: in vivo
[3] = AUC (0 to t) in Sprague-Dawley rat at 5 mg/kg, iv by LC-MS analysis; assay type: ADME, organism-based; details: in vivo
[4] = Toxicity in Kunming mouse assessed as effect on kidney size at 100 to 200 mg/kg, iv once daily for 5 days; assay type: organism-based; details: in vivo, 120 h, dose 100-200 mg/kg, time 5 day
[5] = Metabolic stability in rat liver microsomes assessed as half-life measured upto 60 mins by LC-MS/MS analysis; assay type: ADME, Microsome
LX-2 [6] = assay: Cytotoxicity against human LX2 cells at 5 uM incubated for 48 hrs by CCK8 assay; assay type: toxicity, cell-based; details: lx-2, 48 h
[7] = Selectivity index, the ratio of CC50 for human HepG2.2.15 cells to EC50 for antiviral activity against HBV in human HepG2.2.15 cells assessed as inhibition of HBV DNA replication; assay type: toxicity, cell-based; details: read-out: Ratio CC50/EC50
[8] = Toxicity in Kunming mouse assessed as effect on liver weight at 100 to 200 mg/kg, iv once daily for 5 days; assay type: organism-based; details: in vivo, 120 h, dose 100-200 mg/kg, time 5 day
[9] = Tmax in Sprague-Dawley rat at 5 mg/kg, iv by LC-MS analysis; assay type: ADME, organism-based; details: in vivo
[10] = Toxicity in Kunming mouse assessed as maximum tolerated dose administered intravenously as once daily dose for 5 days; details: in vivo, route iv, time 5 day
[11] = AUC (0 to t) in Sprague-Dawley rat at 50 mg/kg, po by LC-MS analysis; assay type: ADME, organism-based; details: in vivo
[12] = Toxicity in Kunming mouse assessed as effect on body weight at 100 to 200 mg/kg, iv administered once daily for 5 days; assay type: organism-based; details: in vivo, 120 h, dose 100-200 mg/kg, time 5 day
[13] = Half-life in Sprague-Dawley rat at 50 mg/kg, po by LC-MS analysis; assay type: ADME, organism-based; details: in vivo
[14] = Toxicity in Kunming mouse assessed as histopathological changes in kidney at 200 mg/kg, iv once daily for 5 days by H and E staining based analysis; assay type: organism-based; details: in vivo, 120 h, time 5 day
[15] = AUC (0 to infinity) in Sprague-Dawley rat at 50 mg/kg, po by LC-MS analysis; assay type: ADME, organism-based; details: in vivo
[16] = Toxicity in Kunming mouse assessed as effect on heart weight at 100 to 200 mg/kg, iv once daily for 5 days; assay type: organism-based; details: in vivo, 120 h, dose 100-200 mg/kg, time 5 day
[17] = Toxicity in Kunming mouse assessed as effect on liver colour at 100 to 200 mg/kg, iv once daily for 5 days; assay type: organism-based; details: in vivo, 120 h, dose 100-200 mg/kg, time 5 day
[18] = Oral bioavailability in Sprague-Dawley rat at 50 mg/kg by LC-MS analysis; assay type: ADME, organism-based; details: in vivo
[19] = Tmax in Sprague-Dawley rat at 50 mg/kg, po by LC-MS analysis; assay type: ADME, organism-based; details: in vivo
LX-2 [20] = assay: Cytotoxicity against human LX2 cells assessed as cell growth inhibition at 10 uM incubated for 48 hrs by CCK8 assay relative to control; assay type: toxicity, cell-based; details: lx-2, 48 h, 10 µM
[21] = Metabolic stability in human liver microsomes assessed as half-life measured upto 60 mins by LC-MS/MS analysis; assay type: ADME, Microsome
[22] = AUC (0 to infinity) in Sprague-Dawley rat at 5 mg/kg, iv by LC-MS analysis; assay type: ADME, organism-based; details: in vivo
[23] = Cmax in Sprague-Dawley rat at 50 mg/kg, po by LC-MS analysis; assay type: ADME, organism-based; details: in vivo
[24] = Toxicity in Kunming mouse assessed as histopathological changes in heart at 200 mg/kg, iv once daily for 5 days by H and E staining based analysis; assay type: organism-based; details: in vivo, 120 h, time 5 day
[25] = Cytotoxicity against human HepG2.2.15 cells assessed as inhibition of cell proliferation by CCK8 assay; assay type: toxicity, cell-based, HepG2 2.2.15
[26] = Toxicity in Kunming mouse assessed as effect on kidney colour at 100 to 200 mg/kg, iv once daily for 5 days; assay type: organism-based; details: in vivo, 120 h, dose 100-200 mg/kg, time 5 day
[27] = Half-life in Sprague-Dawley rat at 5 mg/kg, iv by LC-MS analysis; assay type: ADME, organism-based; details: in vivo
[28] = Toxicity in Kunming mouse assessed as effect on kidney weight at 100 to 200 mg/kg, iv once daily for 5 days; assay type: organism-based; details: in vivo, 120 h, dose 100-200 mg/kg, time 5 day
Hepatitis B virus = assay: Antiviral activity against Hepatitis B virus infected in human HepG2.2.15 cells assessed as inhibition of HBV DNA replication incubated for 10 day by qPCR analysis; assay type: functional, organism-based; details: HepG2.2.15, 240 h
[29] = Drug uptake in Sprague-Dawley rat at 50 mg/kg, po or 5 mg/kg, iv measured after 2 to 3 hrs by LC-MS/MS analysis; assay type: ADME, organism-based; details: in vivo, time 2-3 hrs
[30] = Toxicity in Kunming mouse assessed as effect on liver size at 100 to 200 mg/kg, iv once daily for 5 days; assay type: organism-based; details: in vivo, 120 h, dose 100-200 mg/kg, time 5 day
[31] = Toxicity in Kunming mouse assessed as histopathological changes in liver at 200 mg/kg, iv once daily for 5 days by H and E staining based analysis; assay type: organism-based; details: in vivo, 120 h, time 5 day
[32] = Toxicity in Kunming mouse assessed as effect on heart colour at 100 to 200 mg/kg, iv once daily for 5 days; assay type: organism-based; details: in vivo, 120 h, dose 100-200 mg/kg, time 5 day
[33] = Toxicity in Kunming mouse assessed as effect on heart size at 100 to 200 mg/kg, iv once daily for 5 days; assay type: organism-based; details: in vivo, 120 h, dose 100-200 mg/kg, time 5 day
[34] = Cmax in Sprague-Dawley rat at 5 mg/kg, iv by LC-MS analysis; assay type: ADME, organism-based; details: in vivo
[35] = Prodrug release in human HepG2 cells assessed as adefovir release by mass spectrometric analysis; assay type: ADME, cell-based
[36] = Prodrug release in human HepG2 cells assessed as tenofovir release by mass spectrometric analysis; assay type: ADME, cell-based
[37] = Drug metabolism in plasma of Sprague-Dawley rat assessed as hydrolyzed metabolite formation measured after 5 hrs by HPLC analysis; assay type: ADME, cell-free
[38] = Prodrug release in human HepG2 cells assessed as adefovir release measured over 1 hrs by HPLC analysis; assay type: ADME, cell-based; details: hepg2, 1 h
[39] = Prodrug release in human HepG2 cells assessed as tenofovir release measured over 1 hrs by HPLC analysis; assay type: ADME, cell-based; details: hepg2, 1 h
[40] = Stability of compound in PBS buffer assessed as half-life by high-performance liquid chromatography; assay type: physicochemical
[41] = Drug uptake in Sprague-Dawley rat liver at 10 mg/kg, iv measured after 1 to 6 hrs by LC-MS/MS analysis; assay type: ADME, organism-based; details: in vivo, time 1-6 hrs
[42] = Drug metabolism in plasma of Sprague-Dawley rat assessed as (1-(36-(((2R,3R,4S,5R,6R)-3-acetamido-4,5-dihydroxy-6-(hydroxymethyl)tetrahydro-2H-pyran-2-yl)oxy)-21,21-bis((3-((3-(5-(((2R,3R,4S,5R,6R)-3-acetamido-4,5-dihydroxy-6-(hydroxymethyl)tetrahydro-2H-pyran-2-yl)oxy)pentanamido)propyl)amino)-3-oxopropoxy)methyl)-16,19,26,32-tetraoxo-3,6,9,12,23-pentaoxa-15,20,27,31-tetraazahexatriacontyl)-1H-1,2,3-triazol-4-yl)methyl hydrogen ((2-(6-amino-9H-purin-9-yl)ethoxy)methyl)phosphonate formation measured at 2.1 mins by HPLC analysis; assay type: ADME, cell-free; details: 0.035 h

SMILES	Activity [4]	Activity (LX-2 [6])	selectivity ratio [7]	Activity [8]	MTD at 120 h [10]	Activity [12]	Activity [14]	Activity [16]	Activity [17]	Activity (LX-2 [20])	Activity [24]	CC50 [25]	Activity [26]	Activity [28]	EC50 (Hepatitis B virus)	Activity [30]	Activity [31]	Activity [32]	Activity [33]	also measured
CC(=O)N[C@H]1[C@H](OCCCCC(=O)NCCOCCOCCOCCOCCn2cc(COP(=O)(COCCn3cnc4c(N)ncnc43)OCOC(=O)C(C)(C)C)nn2)O[C@H](CO)[C@H](O)[C@H]1O (some centres not stated)	Non-toxic	Toxic	> 384	Non-toxic	~200 mg/kg	Non-toxic	Non-toxic	Non-toxic	Non-toxic	Toxic	Non-toxic	> 100000 nM	Non-toxic	Non-toxic	260 nM	Non-toxic	Non-toxic	Non-toxic	Non-toxic	clearance [1]: 42.1 mL/min/kg; CL/F [2]: 252 mL/min/kg; AUC(0-t) [3]: 1990 ng·h/mL; half-life [5]: 2.33 min; Tmax [9]: 1.98 min; AUC(0-t) [11]: 3300 ng·h/mL; half-life [13]: 191 min; AUC(0-inf) [15]: 3310 ng·h/mL; bioavailability [18]: 16.6%; Tmax [19]: 40.2 min; half-life [21]: 14.9 min; AUC(0-inf) [22]: 2000 ng·h/mL; Cmax [23]: 1290 ng/mL; half-life [27]: 46.8 min; Drug uptake [29]: Not_active; Cmax [34]: 2010 ng/mL
CC(=O)N[C@H]1[C@H](OCCCCC(=O)NCCCNC(=O)CCOCC(COCCC(=O)NCCCNC(=O)CCCCO[C@@H]2O[C@H](CO)[C@H](O)[C@@H](O)[C@H]2NC(C)=O)(COCCC(=O)NCCCNC(=O)CCCCO[C@@H]2O[C@H](CO)[C@H](O)[C@@H](O)[C@H]2NC(C)=O)NC(=O)CCC(=O)NCCOCCOCCOCCOCCn2cc(COP(=O)(O)COCCn3cnc4c(N)ncnc43)nn2)O[C@H](CO)[C@H](O)[C@H]1O																				Drug metabolism [35]: metabolite_detected; Drug metabolism [36]: metabolite_detected; Drug metabolism [37]: metabolite_notdetected; Drug metabolism [38]: metabolite_detected; Drug metabolism [39]: metabolite_detected
CC(=O)N[C@H]1[C@H](OCCCCC(=O)NCCCNC(=O)CCOCC(COCCC(=O)NCCCNC(=O)CCCCO[C@@H]2O[C@H](CO)[C@H](O)[C@@H](O)[C@H]2NC(C)=O)(COCCC(=O)NCCCNC(=O)CCCCO[C@@H]2O[C@H](CO)[C@H](O)[C@@H](O)[C@H]2NC(C)=O)NC(=O)CCC(=O)NCCOCCOCCOCCOCCn2cc(COP(=O)(COCCn3cnc4c(N)ncnc43)OCOC(=O)C(C)(C)C)nn2)O[C@H](CO)[C@H](O)[C@H]1O (some centres not stated)	Non-toxic	Toxic	> 1020	Non-toxic	~200 mg/kg	Non-toxic	Non-toxic	Non-toxic	Non-toxic	Toxic	Non-toxic	> 100000 nM	Non-toxic	Non-toxic	98.3 nM	Non-toxic	Non-toxic	Non-toxic	Non-toxic	half-life [40]: > 1440 min; Drug uptake [41]: Active; Drug metabolism [42]: metabolite_detected
